How the values were obtained:
CRBN = biological target: T1, CRBN (Homo sapiens, UniProt Q96SW2); test: E3 ligase homo-degradation by western blot, CRBN; assay type: cell-based; details: HEK293 cells, 4 h, 0.1, 1 and 10 μM
T1 construct: western blot analysis of the levels of CRBN and VHL E3 ligase in cell lysate; endogenous in cells; host or cells: HEK293 (ATCC)
From the text: (§1) 4. Biological experiments
(§2) Primary antibodies used for western blotting included anti-human BRD2(1:2000, rabbit monoclonal, Abcam, ab139690), anti-human BRD3 (1:1000, rabbit monoclonal, Abcam, ab264420), anti-human BRD4 (E2A7X) (1:1000, rabbit monoclonal, Cell Signaling Technology, #13440), anti-human VHL (1:1000, rabbit polyclonal, Cell Signaling Technology, #68547), anti-human CRBN (D8H3S) (1:1000, rabbit polyclonal, Cell Signaling Technology, #71810), anti-human alpha Tubulin, clone B-5-1-2 (1:5000, mouse monoclonal, Merck Life Science, # 32-2500).Secondary antibodies used for western blot included: anti-mouse horseradish peroxidase-linked antibody (1:3000, sheep, GE Healthcare Life Sciences, #NA931V), and anti-rabbit horseradish peroxidase-linked antibody (1:8000, donkey, GE Healthcare Life Sciences, #NA934V). Reagent for degradation assay and compounds […]
dr. Serge Van Calenbergh, Ghent University).
4.2 Cell lines and culture
HEK293, A549, SKOV-3, HCT116 cells (ATCC)were grown in DMEM (Gibco),and all cells were supplemented with 10% (v/v) fetal bovine serum (FBS) (Sigma), […] penicillin/streptomycin solution (Thermo Fisher Scientific) and maintained at 37 °C and 5% CO2 in a humidified atmosphere. All cells used were tested monthly using the Mycoalert Mycoplasma Detection Kit (cat. no. LT07-318, Lonza) to exclude mycoplasma contamination.
4.3 Degradation assays by Western blot
General method of Western blot: Lysates were sonicated and centrifuged at 4 °C at 20000 g for 15 min, and the supernatants were transferred to new tubes. Protein concentration of cell lysates was measured using the DC Protein Assay kit (BIO-RAD) following manufacturer's instructions. Cell lysates were mixed with reducing sample buffer (0.5 M Tris-HCl (pH 6.8), 43% glycerol, 9.2% SDS, 5% 2-mercaptoethanol, 5% bromophenol blue) and boiled for 5 min at 95°C. […]
(§3) Figure S5 Homo-degradation effect in Dual-ligand PROTACs. […] Subsequently, cell lysates were prepared and the protein levels of CRBN or VHL E3 ligase were assessed by Western blotting. […]

BRD4 = biological target: T2, BRD4 (Homo sapiens, UniProt O60885); test: Western blot degradation of BRD4 in HEK293 cells; assay type: cell-based; details: HEK293, lenalidomide 10 μM preincubated 2 h, PROTAC 100 nM, 4 h
T2 construct: BRD2, BRD3 and BRD4 protein levels were measured by western blot; endogenous in cells; host or cells: HEK293 (ATCC)
Description: HEK293, A549, SKOV-3, HCT116 cells (ATCC)were grown in DMEM (Gibco),and all cells were supplemented with 10% (v/v) fetal bovine serum (FBS) (Sigma), 100 mg/mL penicillin/streptomycin solution (Thermo Fisher Scientific) and maintained at 37 °C and 5% CO2 in a humidified atmosphere. All cells used were tested monthly using the Mycoalert
at 95°C. Proteins were separated by SDS–PAGE (SDS polyacrylamide gel electrophoresis) with 25–40 µg of total protein per well, transferred to 0.2-μm-pore nitrocellulose membranes (BIO-RAD), then blocked in 5%(w/v) milk in PBS and 0.5% Tween-20, and incubated overnight at 4°C with primary antibodies described in section 4.1. Secondary antibodies were added for 1h at room temperature after 3 times washing with blocking buffer. After 6 times of washing
with PBS (Thermo Fisher Scientific) and 0.5% Tween-20, Blots were detected using the Clarity Western ECL Substrate (BIO-RAD) and visualized on iBright CL 750 (Thermo Fisher Scientific) and images were analyzed using iBright Firmware 1.7.0.
4.3.1 Evaluation of the degradation capacity of PROTACs […]

[1] = tested on: HEK293, A549, HCT116 and SKOV-3; test: CellTiter-Glo metabolic activity, cell line panel; assay type: cell-based; details: 48 h
Description: (§4) 4.4 Cell viability assay on 2D cells cultures
(§5) HEK293, HCT116, A549,andSKOV-3 cells were seeded in 96-well tissue culture plates at a density of 2000-3000 cells per well in 100 µl of growth medium and incubated overnight at 37 °C with 5% CO2. The following day, the cells were treated with various concentrations of compounds or 0.05% DMSO for 48 h. After treatment, add 100 μl of Cell Titer-Glo® 2.0 Reagent (cat. no. G9243, Promega) in each well, then the 96-well plates were put on an orbital shaker for 10 min and then allow the plate to incubate at room temperature for 10-20min to stabilize the luminescent signal. Luminescence readout (Gen5 Data Analysis Software v3.08.01) was performed to record luminescence.
(§6) (1 picture or pasted object on this page, not shown here)

VHL = biological target: T3, VHL (Homo sapiens, UniProt P40337); test: E3 ligase homo-degradation by western blot, VHL; assay type: cell-based; details: HEK293 cells, 4 h, 1 μM and 10 μM
T3 construct: western blot analysis of the levels of CRBN and VHL E3 ligase in cell lysate; endogenous in cells; host or cells: HEK293 (ATCC)
T3 sequence (P40337 whole entry): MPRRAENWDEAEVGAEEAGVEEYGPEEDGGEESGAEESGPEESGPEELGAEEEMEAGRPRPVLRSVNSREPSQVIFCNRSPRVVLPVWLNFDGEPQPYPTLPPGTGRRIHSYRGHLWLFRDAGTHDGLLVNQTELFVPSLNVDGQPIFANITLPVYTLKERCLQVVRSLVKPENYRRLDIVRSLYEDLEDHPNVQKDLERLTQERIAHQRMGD
From the text: as §1, §2
dr. Serge Van Calenbergh, Ghent University). […]
General method of Western blot: Lysates were sonicated and centrifuged at 4 °C at 20000 g for 15 min, and the supernatants were transferred to new tubes. Protein concentration of cell lysates was measured using the DC Protein Assay kit (BIO-RAD) following manufacturer's instructions. […]
as §3

A549 cells = test: MTT cell viability with and without washout; assay type: cell-based, human
Description: Figure S6 Dual-ligand PROTAC activity is not caused by enhanced BRD-inhibition by dual JQ1
display. A549 cells were treated with an escalating dose of 2J2V, 2J-N3 and JQ1, respectively, for 8h.
Subsequently, cells were either washed and cultured in fresh medium, or left untouched. After a total
of 48h, cell viability was measured by MTT assay (n=6). […]

HCT116 cells = test: CellTiter-Glo 2D metabolic activity assay, HCT116; assay type: cell-based; details: Homo sapiens, HCT-116, 2D culture, 48 h
Description: as §4, §5, §6

T1 sequence (Q96SW2 whole entry): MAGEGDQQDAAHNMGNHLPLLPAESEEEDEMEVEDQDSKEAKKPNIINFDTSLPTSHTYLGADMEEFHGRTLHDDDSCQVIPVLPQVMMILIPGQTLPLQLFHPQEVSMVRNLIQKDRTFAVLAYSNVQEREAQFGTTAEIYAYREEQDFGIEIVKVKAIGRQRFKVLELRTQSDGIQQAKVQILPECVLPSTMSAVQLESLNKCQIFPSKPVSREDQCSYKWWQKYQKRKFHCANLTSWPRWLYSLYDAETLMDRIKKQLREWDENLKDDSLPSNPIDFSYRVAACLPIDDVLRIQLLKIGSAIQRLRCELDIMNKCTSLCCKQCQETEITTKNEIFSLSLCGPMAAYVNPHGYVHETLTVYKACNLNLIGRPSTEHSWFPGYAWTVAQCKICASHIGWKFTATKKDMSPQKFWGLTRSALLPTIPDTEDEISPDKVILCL

Q: With `Cc1sc2c(c1C)C(c1ccc(Cl)cc1)=N[C@@H](CC(=O)NCCOCCOCCNC(=O)C[C@H](NC(=O)COCCOCCOCCOCCn1cc(CCC(=O)N[C@@H](CC(=O)NCCOCCOCCNc3cccc4c3C(=O)N(C3CCC(=O)NC3=O)C4=O)C(=O)NCCOCCOCCNc3cccc4c3C(=O)N(C3CCC(=O)NC3=O)C4=O)nn1)C(=O)NCCOCCOCCNC(=O)C[C@@H]1N=C(c3ccc(Cl)cc3)c3c(sc(C)c3C)-n3c(C)nnc31)c1nnc(C)n1-2` (stereo partly shown) [2J2P] as the compound, how does the “CRBN level (homo-degradation)” value (CRBN) read?
A: did not induce any significant decrease of CRBN

Q: And the “BRD4 degradation efficiency on addition of lenalidomide” value (BRD4)?
A: significantly reduced

Q: How did the “metabolic inhibition, comparison” value [1] turn out when `Cc1ncsc1-c1ccc(C(C)NC(=O)C2CC(O)CN2C(=O)C(NC(=O)COCCOCCNC(=O)CC(NC(=O)CCc2cn(CCOCCOCCOCCOCC(=O)NC(CC(=O)NCCOCCOCCNC(=O)CC3N=C(c4ccc(Cl)cc4)c4c(sc(C)c4C)-n4c(C)nnc43)C(=O)NCCOCCOCCNC(=O)CC3N=C(c4ccc(Cl)cc4)c4c(sc(C)c4C)-n4c(C)nnc43)nn2)C(=O)NCCOCCOCC(=O)NC(C(=O)N2CC(O)CC2C(=O)NC(C)c2ccc(-c3scnc3C)cc2)C(C)(C)C)C(C)(C)C)cc1` (stereo not shown) [2J2V] was run?
A: greater metabolic response compared to the CRBN ligase-based dual-ligand PROTACs 2J2P

Q: What about the VHL homo-degradation (VHL) of the same compound?
A: did induce homo-degradation of VHL

Q: What about the cytotoxic activity (A549 cells; 48 hours) of the same compound?
A: much more potent

Q: And the “cytotoxic potency after washout” value (A549 cells; washout after 8 hours, 48 hours total)?
A: largely retained its potency after washout

Q: Which EC50 (HCT116 cells) does the source give for `Cc1ncsc1-c1ccc(CNC(=O)C2CC(O)CN2C(=O)C(NC(=O)COCCOCCOCCNC(=O)CC2N=C(c3ccc(Cl)cc3)c3c(sc(C)c3C)-n3c(C)nnc32)C(C)(C)C)cc1` (stereo not shown) [MZ1, reference compound] here?
A: 100 nM

Reference: PMC11462456 (Chemical Science, 2024)
